Measurements as given in patent publication US8664233B2, “Substituted 5H-pyrimido[5,4-B]indoles, method for the production thereof and use thereof for treating non-solid malignant tumors of the blood-producing system” (The Medicines Company (Leipzig) GmbH, priority 2006, dated 2014).
Like-named read-outs stand apart in the source and are kept apart here.

Experiments:
B-CLL cells [1] = test: formazane reduction assay (MMT test), cytotoxicity after 24 h incubation of the patient's blood; type: cell-based, human
Experimental: Compounds according to the invention were tested as inductors of a cytotoxic reaction, i.e. triggering of apoptosis, in the case of chronic lymphatic leukemia (B-CLL).
Fludarabine, which is used in B-CLL as a standard chemotherapeutic agent, was employed as a positive control. A cytotoxicity up to a maximum of 60% was achievable under equal test conditions.
The cytotoxicity of the B-CLL cells was determined by means of a commercially available formazane reduction assay (MMT test) after 24 h of incubation of the patient's blood with the active substances.

B-CLL cells [2] = test: synergistic effect with fludarabine on induction of apoptosis in purified B-CLL cells; type: cell-based, human
Source text: As shown, a combination of an exemplary substance according to the invention with fludarabine already yields a total toxicity of the B-CLL cells of over 80% with a 10% toxic concentration of each partner. In the case of an additive effect of both substances, only about 20% toxicity could be expected. If the concentration of both substances is increased such that each substance kills 20% of the cells in a separate test, a toxicity of almost 100% is obtained in this synergy experiment.

B-CLL cells [3] = test: cytotoxicity / vitality of purified primary B-CLL cells (CellTiter-Glo ATP assay, resazurine vitality test), 72 h; type: cell-based; details: Homo sapiens; leukemic B lymphocytes of a B-CLL patient with an 11q deletion (FIG. 1)
Source text: In order to check the selective effect of various substances as to the vitality of human cells, isolated B cells from patients suffering from chronic B cell leukemia (B-CLL) and also purified […] (PBMC) and erythrocytes from healthy donors were investigated. The permanent human EHEB B-CLL cell line was selected as a model system for the chronic lymphatic B cell leukemia. It is known in the literature that as compared to primary B-CLL cells the EHEB cells respond in a much more insensitive fashion to proapoptotic signals. The cells were incubated with concentration series of the test substances for 3 days and the vitality of the cells was determined by means of CellTiter-Glo™ ATP assay (Promega, catalog number G7571) according to the manufacturer's instructions after this period.
Primary tumor cells are isolated from whole blood by means of density gradient centrifugation. To this end, the patient's whole blood is incubated with 50.0 μl human B cell enrichment cocktail (RosetteSep; Stem Cell Technology, Cat #15064) per milliliter whole blood at room temperature (RT) for 20 min. […] Having determined the cell number by means of trypan blue staining (trypan blue solution of Sigma-Aldrich, catalog no. T-8154) the desired number of test plates can be prepared. […]

caspases 3, 7 and 9 = test: caspase-Glo 3/7 and caspase-Glo 9 assays in EHEB cells; type: cell-based, human; details: 4.5 and 24 hours (FIG. 2)
Experimental: In order to determine the specific induction of programmed cell death (apoptosis), a detection thereof was carried out by means of caspase-3/7 activity; the caspase-3/7 activity is described in the literature as a safe detection of apoptosis.
The EHEB cells were prepared as described above and incubated with three concentration dilutions, each in triple determination, for 4.5 and 24 hours. Thus, substance final concentrations were selected from 50.0, 10.0 and 2.00 μM for the 4 hour batches as well as 10.0, 1.00 and 0.50 μM for the 24 hour batches. In this connection, staurosporine in a final concentration of 2.00 μM (4 hour batches) and 0.50 μM (24 hour batches) acted as the positive control. In order to detect the caspase-3/7 activity, the caspase-Glo 3/7 and caspase-Glo 9 assays of Promega company were used; in this connection, the enzyme activity was determined by means of a luminescence signal which was recorded with the FluostarOPTIMA measurement device (BMG Labtechnologies).
The results were evaluated by a comparison between the relative luminescence intensity of the test substances and the positive control (staurosporine=100%) by means of the Excel program. The relative intensities for the substances according to the invention are up to 100% with an inhibitor concentration between 1 and 50 μM. […]

`CCOc1nc(N2CCNCC2)nc2c1[nH]c1cc(-c3cccc(C(=O)O)c3)ccc12.Cl` [3-(4-ethoxy-2-(piperazin-1-yl)-5H-pyrimido[5,4-b]indol-7-yl)benzoic acid hydrochloride] was tested, and the “cytotoxicity (apoptosis) of the leukemia cells, maximum reached” value (from here on “cytotoxicity (apoptosis)”) (B-CLL cells [1]) was “up to 100%”.
For `CCOc1nc(N2CCNCC2)c2[nH]c3cc(-c4ccncc4)ccc3c2n1` [2-ethoxy-4-(piperazin-1-yl)-7-(pyridin-4-yl)-5H-pyrimido[5,4-b]indole], the “cytotoxicity (apoptosis)” value (B-CLL cells [1]) was “up to 100%”.
In the case of `CCOc1nc(N2CCNCC2)nc2c1[nH]c1cc(-c3ccc(OC)c(OC)c3)ccc12` [4-ethoxy-2-(piperazin-1-yl)-7-(3,4-dimethoxy-phenyl)-5H-pyrimido[5,4-b]indole], the “cytotoxicity (apoptosis)” value (B-CLL cells [1]) is reported as “up to 100%”.
For `CCOC(=O)c1ccc(-c2ccc3c(c2)[nH]c2c(OCC)nc(N4CCNCC4)nc23)cc1` [4-(4-ethoxy-2-(piperazin-1-yl)-5H-pyrimido[5,4-b]indol-7-yl)benzoic acid ethyl ester], the “cytotoxicity (apoptosis)” value (B-CLL cells [1]) was “up to 100%”.
For `CCOc1nc(N2CCNCC2)nc2c1[nH]c1cc(-c3ccncc3)cc(OC)c12` [4-ethoxy-9-methoxy-2-(piperazin-1-yl)-7-(pyridin-4-yl)-5H-pyrimido[5,4-b]indole], the “cytotoxicity (apoptosis)” value (B-CLL cells [1]) was “up to 100%”.
In the case of `CCOc1nc(N2CCNCC2)nc2c1[nH]c1c(-c3ccncc3)cccc12` [Example 8, 4-ethoxy-2-(piperazin-1-yl)-6-(pyridin-4-yl)-5H-pyrimido[5,4,-b]indole], the “cytotoxicity (apoptosis)” value (B-CLL cells [1]) is reported as “up to 100%”.
In the case of `CCOc1nc(N2CCNCC2)nc2c1[nH]c1cc(-c3ccc(N)nc3)ccc12` [4-ethoxy-2-(piperazin-1-yl)-7-(2-aminopyridin-5-yl)-5H-pyrimido[5,4-b]indole], the “cytotoxicity (apoptosis)” value (B-CLL cells [1]) is reported as “up to 100%”.
In the case of `CCOc1nc(N2CCNCC2)nc2c1[nH]c1cc(-c3ccncc3)ccc12` [4-ethoxy-2-(piperazin-1-yl)-7-(pyridin-4-yl)-5H-pyrimido[5,4-b]indole], the “total toxicity of the B-CLL cells” value (B-CLL cells [2]; combination with fludarabine, 10% toxic concentration of each partner) is reported as “over 80%”, the “toxicity of the B-CLL cells” value (B-CLL cells [2]; combination with fludarabine, each substance kills 20% of the cells in a separate test) is reported as ~100% and the “effect of combination with fludarabine on the induction of apoptosis” value (B-CLL cells [2]; purified B-CLL cells (FIG. 4)) is reported as “synergistic effect”. The IC50 (B-CLL cells [3]) was 80 nM, the “cytotoxicity (apoptosis)” value (B-CLL cells [1]) was “up to 100%” and the “activation of caspases 3, 7 and 9” value (caspases 3, 7 and 9) was “activating caspases 3, 7, and 9”.
In the case of `Nc1nc(F)nc2c1ncn2[C@@H]1O[C@H](CO)[C@@H](O)[C@@H]1O` [Fludarabine, fludarabine, reference compound], the “cytotoxicity (apoptosis)” value (B-CLL cells [1]; ex vivo, blood of B-CLL patients, 24 h incubation) is reported as ≤ 60%.
In the case of `CCOc1nc(N2CCNCC2)nc2c1[nH]c1cc(-c3cccnc3)ccc12` [4-ethoxy-2-(piperazin-1-yl)-7-(pyridin-3-yl)-5H-pyrimido[5,4-b]indole], the “cytotoxicity (apoptosis)” value (B-CLL cells [1]) is reported as “up to 100%”.
With `CCOc1nc(N2CCN(C)CC2)nc2c1[nH]c1cc(-c3ccncc3)ccc12` [4-ethoxy-2-(4-methylpiperazin-1-yl)-7-(pyridin-4-yl)-5H-pyrimido[5,4-b]indole] the “cytotoxicity (apoptosis)” value (B-CLL cells [1]) was “up to 100%”.
In the case of `CCOc1nc(N2CCNCC2)nc2c1[nH]c1cc(-c3ccccc3N)cc(OC)c12` [Example 1, 2-(4-ethoxy-9-methoxy-2-(piperazin-1-yl)-5H-pyrimido[5,4-b]indol-7-yl)benzene amine], the “cytotoxicity (apoptosis)” value (B-CLL cells [1]) is reported as “up to 100%”.
`CCOc1nc(N2CCNCC2)nc2c1[nH]c1cc(-c3ccc(O)cc3)ccc12.Cl` [4-(4-ethoxy-2-(piperazin-1-yl)-5H-pyrimido[5,4-b]indol-7-yl)phenol-hydrochloride] was tested, and the “cytotoxicity (apoptosis)” value (B-CLL cells [1]) was “up to 100%”.
For `OCCOc1nc(N2CCNCC2)nc2c1[nH]c1cc(-c3ccncc3)ccc12` [2-{2-(piperazin-1-yl)-7-(pyridin-4-yl)-5H-pyrimido[5,4-b]indol-4-yloxy}ethanol], the “cytotoxicity (apoptosis)” value (B-CLL cells [1]) was “up to 100%”.
In the case of `CCOc1nc(N2CCNCC2)nc2c1[nH]c1cc(-c3cccc(C(=O)OC)c3)ccc12` [3-(4-ethoxy-2-(piperazin-1-yl)-5H-pyrimido[5,4-b]indol-7-yl)benzoic acid methyl ester], the “cytotoxicity (apoptosis)” value (B-CLL cells [1]) is reported as “up to 100%”.
For `CCOc1nc(N2CCNCC2)nc2c1[nH]c1cc(N3CCOCC3)ccc12` [4-ethoxy-7-morpholino-2-(piperazin-1-yl)-5H-pyrimido[5,4-b]indole], the “cytotoxicity (apoptosis)” value (B-CLL cells [1]) was “up to 100%”.
`CCOc1nc(N2CCNCC2)nc2c1[nH]c1ccc(-c3ccncc3)cc12` [4-ethoxy-2-(piperazin-1-yl)-8-(pyridin-4-yl)-5H-pyrimido[5,4-b]indole] was tested, and the “cytotoxicity (apoptosis)” value (B-CLL cells [1]) was “up to 100%”.
For `CCOc1nc(N2CCNCC2)nc2c1[nH]c1cc(-c3ccc(C(=O)O)cc3)ccc12.Cl` [4-(4-ethoxy-2-(piperazin-1-yl)-5H-pyrimido[5,4-b]indol-7-yl)benzoic acid hydrochloride], the “cytotoxicity (apoptosis)” value (B-CLL cells [1]) was “up to 100%”.
